# Assay results from patent US8048892B2, “Azaquinolone based compounds exhibiting prolyl hydroxylase inhibitory activity, compositions, and uses thereof” (Amgen Inc., priority 2006, dated 2011).
# pIC50: −log10 of the molar value. Where a name gives a salt, the structure may show the parent alone.
# Target: HIF PHD2 (Homo sapiens, UniProt Q9GZT9)
# Test: PHD2 inhibition assay (TR-FRET, VCB-Eu detection of hydroxylated P564-HIF1α peptide)
# Assay type: biochemical
# Conditions: 2 nM PHD2, 100 nM P564-HIF1α peptide, 0.25 μM 2-oxoglutarate
# Procedure: Inhibition of HIF PHD2 activity was quantified utilizing the TR-FRET technology. HIF PHD2 catalyzes a hydroxyl modification on the proline residue of the P564-HIF1α peptide substrate (Biotin-DLEMLAPYIPMDDDFQL (SEQ ID NO: 7)) resulting in recognition and binding of the europylated Von Hippel-Lindau protein (pVHL), elongin B and elongin C heterotrimeric (VCB-Eu) complex.
# The PHD2 inhibition assay was executed by addition of freshly dissolved FeCl2 to 178.57 μM (100 μM final concentration) in PHD2 Reaction Buffer containing 30 mM MES, pH 6, 10 mM NaCl, 0.25% Brij-35, 0.01% BSA, and 1% DMSO. 28 μL of the iron solution and 2 μL of inhibitor compounds serially diluted in 100% DMSO (5% DMSO final) were added to black polypropylene 96-well microtiter plates. To that, 10 μL of 10 nM PHD2 (2 nM final) was added to all wells of the plate except for the 8 wells of column 12 (LO control), and allowed to incubate at room temperature on the shaker for one hour. Column 6 was the HI control containing PHD2 enzyme and 5% DMSO vehicle, but no inhibitor compound. To initiate the PHD2 enzymatic reaction, 10 μL of a solution containing 500 nM P564-HIF1α peptide (100 nM final), 10 mM ascorbic acid (2 mM final), and 1.25 μM 2-oxoglutarate (α-ketoglutarate; 0.25 μM final) in PHD2 Reaction Buffer was added to all wells of the plate and allowed to incubate on the shaker at room temperature for one hour.
# The reaction was terminated by addition of 25 μL TR-FRET Buffer (50 mM TRIS-HCl, pH 9, 100 mM NaCl, 0.05% BSA, and 0.5% Tween-20) containing 150 mM succinate (product inhibitor; 50 mM final), 75 nM streptavidin-APC (25 nM final), and 7.5 nM VCB-Eu (2.5 nM final). The TR-FRET detection reagents were placed on a shaker for 1 hour to reach binding equilibrium before reading on the Discovery platform (PerkinElmer). Europium is excited at 315 nm and phosphoresces at 615 nm with a large Stoke's shift. APC, in turn, emits at 655 nm upon excitation at 615 nm. The TR-FRET signal is measured as the ratio of the APC 655 nm signal divided by the internal europium reference 615 nm emission signal.
# The POC (percentage of control) was determined by comparing the signal from hydroxylated peptide substrate in the enzyme reaction containing inhibitor compound with that from PHD2 enzyme with DMSO vehicle alone (HI control), and no enzyme (LO control). POC was calculated using the formula: % control (POC)=(cpd−average LO)/(average HI−average LO)*100. Data (consisting of POC and inhibitor concentration in μM) was fitted to a 4-parameter equation (y=A+((B−A)/(1+((x/C)^D))), where A is the minimum y (POC) value, B is the maximum y (POC), C is the x (cpd concentration) at the point of inflection and D is the slope factor) using a Levenburg-Marquardt non-linear regression algorithm.
# HIF PHD2, sequence (Q9GZT9 whole entry): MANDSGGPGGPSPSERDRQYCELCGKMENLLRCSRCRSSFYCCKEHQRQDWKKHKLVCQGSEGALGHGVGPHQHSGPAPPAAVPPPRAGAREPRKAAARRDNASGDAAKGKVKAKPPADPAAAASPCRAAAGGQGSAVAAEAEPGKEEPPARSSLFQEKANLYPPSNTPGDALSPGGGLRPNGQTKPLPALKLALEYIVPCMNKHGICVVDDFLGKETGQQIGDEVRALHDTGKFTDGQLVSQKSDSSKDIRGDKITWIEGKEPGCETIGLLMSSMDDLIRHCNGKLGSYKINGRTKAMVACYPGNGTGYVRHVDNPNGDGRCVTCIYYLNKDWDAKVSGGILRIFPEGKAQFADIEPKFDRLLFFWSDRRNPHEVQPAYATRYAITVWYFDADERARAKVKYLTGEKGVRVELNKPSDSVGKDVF
row,SMILES,pIC50
1,"Cc1ccc(-c2ccc3c(O)c(C(=O)NCC(=O)O)c(=O)n(C)c3n2)cc1 [Example 15, N-((4-Hydroxy-1-methyl-7-(4-methylphenyl)-2-oxo-1,2-dihydro-1,8-naphthyridin-3-yl)carbonyl)glycine]",6.30 to 7.00
2,"Cn1c(=O)c(C(=O)NCC(=O)O)c(O)c2ccc(C#C[Si](C)(C)C)nc21 [Example 19, 2-(4-Hydroxy-1-methyl-2-oxo-7-(2-(trimethylsilyl)ethynyl)-1,2-dihydro-1,8-naphthyridine-3-carboxamido)acetic acid]",7.00 to 7.30
3,"Cn1c(=O)c(C(=O)NCC(=O)O)c(O)c2cc(C3CCCO3)c(C(F)(F)F)nc21 (single isomer, unassigned) [Example 101, (R)-2-(4-Hydroxy-1-methyl-2-oxo-6-(tetrahydrofuran-2-yl)-7-(trifluoromethyl)-1,2-dihydro-1,8-naphthyridine-3-carboxamido)acetic acid or (S)-2-(4-Hydroxy-1-methyl-2-oxo-6-(tetrahydrofuran-2-yl)-7-(trifluoromethyl)-1,2-dihydro-1,8-naphthyridine-3-carboxamido)acetic acid]",> 7.30
4,"Cn1c(=O)c(C(=O)NCC(=O)O)c(O)c2ccc(C(F)(F)F)nc21 [Example 86, 2-(4-Hydroxy-1-methyl-2-oxo-7-(trifluoromethyl)-1,2-dihydro-1,8-naphthyridine-3-carboxamido)acetic acid]",> 7.30
5,"Cn1c(=O)c(C(=O)NCC(=O)O)c(O)c2ccnc(C(F)(F)F)c21 [Example 127, 2-(4-Hydroxy-1-methyl-2-oxo-8-(trifluoromethyl)-1,2-dihydro-1,7-naphthyridine-3-carboxamido)acetic acid]",> 7.30
6,"Cn1c(=O)c(C(=O)NCC(=O)O)c(O)c2cc(-c3ccccc3)nc(C(F)(F)F)c21 [Example 124, 2-(4-Hydroxy-1-methyl-2-oxo-6-phenyl-8-(trifluoromethyl)-1,2-dihydro-1,7-naphthyridine-3-carboxamido)acetic acid]",6.30 to 7.00
7,"Cn1c(=O)c(C(=O)NCC(=O)O)c(O)c2cc(-c3ccc4c(c3)CCO4)ncc21 [Example 108, N-((6-(2,3-Dihydro-1-benzofuran-5-yl)-4-hydroxy-1-methyl-2-oxo-1,2-dihydro-1,7-naphthyridin-3-yl)carbonyl)glycine]",> 7.30
8,"Cn1c(=O)c(C(=O)NCC(=O)O)c(O)c2cc(-c3cccc(N4CCCCC4)c3)cnc21 [Example 59, N-((4-Hydroxy-1-methyl-2-oxo-6-(3-(1-piperidinyl)phenyl)-1,2-dihydro-1,8-naphthyridin-3-yl)carbonyl)glycine]",7.00 to 7.30
9,"Cn1c(=O)c(C(=O)NCC(=O)O)c(O)c2cc(C3=CCCCC3)c(C(F)(F)F)nc21 [Example 96, 2-(6-Cyclohexenyl-4-hydroxy-1-methyl-2-oxo-7-(trifluoromethyl)-1,2-dihydro-1,8-naphthyridine-3-carboxamido)acetic acid]",> 7.30
10,"Cn1c(=O)c(C(=O)NCC(=O)O)c(O)c2cc(C3CCCCO3)cnc21 (single isomer, unassigned) [Example 69, (R)-2-(4-hydroxy-1-methyl-2-oxo-6-(tetrahydro-2 H-pyran-2-yl)-1,2-dihydro-1,8-naphthyridine-3-carboxamido)acetic acid or (S)-2-(4-hydroxy-1-methyl-2-oxo-6-(tetrahydro-2 H-pyran-2-yl)-1,2-dihydro-1,8-naphthyridine-3-carboxamido)acetic acid]",7.00 to 7.30
11,"Cn1c(=O)c(C(=O)NCC(=O)O)c(O)c2cc(-c3ccnc(F)c3)cnc21 [Example 65, 2-(6-(2-Fluoropyridin-4-yl)-4-hydroxy-1-methyl-2-oxo-1,2-dihydro-1,8-naphthyridine-3-carboxamido)acetic acid]",> 7.30
12,"COc1ncccc1-c1cnc2c(c1)c(O)c(C(=O)NCC(=O)O)c(=O)n2C [Example 53, N-((4-Hydroxy-1-methyl-6-(2-(methyloxy)-3-pyridinyl)-2-oxo-1,2-dihydro-1,8-naphthyridin-3-yl)carbonyl)glycine]",> 7.30
13,"CN1CCC(c2cc3c(O)c(C(=O)NCC(=O)O)c(=O)n(C)c3cn2)CC1 [Example 117, 2-(4-Hydroxy-1-methyl-6-(1-methylpiperidin-4-yl)-2-oxo-1,2-dihydro-1,7-naphthyridine-3-carboxamido)acetic acid, Trifluoroacetic acid salt]",> 7.30
14,"CCCCc1cnc2c(c1)c(O)c(C(=O)NCC(=O)O)c(=O)n2C [Example 72, 2-(6-Butyl-4-hydroxy-1-methyl-2-oxo-1,2-dihydro-1,8-naphthyridine-3-carboxamido)acetic acid]",7.00 to 7.30
15,"O=C(O)CNC(=O)c1c(O)c2ccc(C(F)(F)F)nc2[nH]c1=O [Example 87, 2-(4-Hydroxy-2-oxo-7-(trifluoromethyl)-1,2-dihydro-1,8-naphthyridine-3-carboxamido)acetic acid]",> 7.30
16,"CN1CCOc2cc(-c3cnc4c(c3)c(O)c(C(=O)NCC(=O)O)c(=O)n4C)ccc21 [Example 56, N-((4-Hydroxy-1-methyl-6-(4-methyl-3,4-dihydro-2H-1,4-benzoxazin-7-yl)-2-oxo-1,2-dihydro-1,8-naphthyridin-3-yl)carbonyl)glycine]",7.00 to 7.30
17,"Cn1c(=O)c(C(=O)NCC(=O)O)c(O)c2cc(C#CC3CC3)c(C(F)(F)F)nc21 [Example 97, 2-(6-(2-Cyclopropylethynyl)-4-hydroxy-1-methyl-2-oxo-7-(trifluoromethyl)-1,2-dihydro-1,8-naphthyridine-3-carboxamido)acetic acid]",> 7.30
18,"Cn1c(=O)c(C(=O)NCC(=O)O)c(O)c2cc(F)cnc21 [Example 77, 2-(6-Fluoro-4-hydroxy-1-methyl-2-oxo-1,2-dihydro-1,8-naphthyridine-3-carboxamido)acetic acid]",7.00 to 7.30
19,"Cn1c(=O)c(C(=O)NCC(=O)O)c(O)c2ncc(C3CCCC3)cc21 [Example 5, 2-(7-Cyclopentyl-4-hydroxy-1-methyl-2-oxo-1,2-dihydro-1,5-naphthyridine-3-carboxamido)acetic acid]",> 7.30
20,"CN1CCN(c2cc3c(O)c(C(=O)NCC(=O)O)c(=O)n(C)c3cn2)CC1 [Example 122, 2-(4-Hydroxy-1-methyl-6-(4-methylpiperazin-1-yl)-2-oxo-1,2-dihydro-1,7-naphthyridine-3-carboxamido)acetic acid, Trifluoroacetic acid salt]",6.30 to 7.00
21,"C[C@H](NC(=O)c1c(O)c2ccc(C(F)(F)F)nc2n(C)c1=O)C(=O)O [Example 89, (S)-2-(4-Hydroxy-1-methyl-2-oxo-7-(trifluoromethyl)-1,2-dihydro-1,8-naphthyridine-3-carboxamido)propanoic acid]",7.00 to 7.30
22,"C#Cc1cnc2c(O)c(C(=O)NCC(=O)O)c(=O)n(C)c2c1 [Example 7, 2-(7-Ethynyl-4-hydroxy-1-methyl-2-oxo-1,2-dihydro-1,5-naphthyridine-3-carboxamido)acetic acid]",> 7.30
23,"Cn1c(=O)c(C(=O)NCC(=O)O)c(O)c2cc(Cl)[n+]([O-])cc21 [Example 123, 2-(6-Chloro-4-hydroxy-1-methyl-2-oxo-1,2-dihydro-1,7-naphthyridine-3-carboxamido)acetic acid, N-oxide]",> 7.30
24,"Cn1c(=O)c(C(=O)NCC(=O)O)c(O)c2ccc(C3CCCCC3)nc21 [Example 18, 2-(7-Cyclohexyl-4-hydroxy-1-methyl-2-oxo-1,2-dihydro-1,8-naphthyridine-3-carboxamido)acetic acid]",6.30 to 7.00
25,"CCc1cnc2c(c1)c(O)c(C(=O)NCC(=O)O)c(=O)n2C [Example 79, 2-(6-Ethyl-4-hydroxy-1-methyl-2-oxo-1,2-dihydro-1,8-naphthyridine-3-carboxamido)acetic acid]",> 7.30
26,"C#Cc1ccc2c(O)c(C(=O)NCC(=O)O)c(=O)n(C)c2n1 [Example 20, 2-(7-Ethynyl-4-hydroxy-1-methyl-2-oxo-1,2-dihydro-1,8-naphthyridine-3-carboxamido)acetic acid]",> 7.30
27,"Cn1c(=O)c(C(=O)NCC(=O)O)c(O)c2ccc(-c3ccccc3)nc21 [Example 12, 2-(4-Hydroxy-1-methyl-2-oxo-7-phenyl-1,2-dihydro-1,8-naphthyridine-3-carboxamido)acetic acid]",> 7.30
